ChEMBL document CHEMBL4396937, “Synthesis of new triazole fused imidazo[2,1-b]thiazole hybrids with emphasis on Staphylococcus aureus virulence factors” (Bioorg Med Chem Lett, 2019)
In brackets after ≈: the same amount, converted by molar mass. Activity calls are given as the source filed them. The calls are words filed in the database; no cut-off is given here.

Experiments:
Staphylococcus aureus [1] = test: Antibiofilm activity against Staphylococcus aureus MTCC 96 assessed as inhibition of biofilm formation incubated for 48 hrs in presence of Escherichia coli MTCC 739 by FE-SEM analysis; assay type: functional, organism-based; settings: MTCC 96, 48 h
Bacillus subtilis [2] = test: Bactericidal activity against Bacillus subtilis MTCC 121 assessed as reduction in bacterial survival incubated for 24 hrs followed by transfer of microbial suspension to agar plates and measured at 24 hrs post transfer by agar well diffusion method; assay type: functional; settings: MTCC 121, 24 h
Bacillus subtilis [3] = test: Antibacterial activity against Bacillus subtilis MTCC 121 assessed as reduction in bacterial growth incubated for 24 hrs by agar well diffusion method; assay type: functional; settings: MTCC 121, 24 h
Staphylococcus aureus [4] = test: Bactericidal activity against Staphylococcus aureus MLS-16 MTCC 2940 assessed as reduction in bacterial survival incubated for 24 hrs followed by transfer of microbial suspension to agar plates and measured at 24 hrs post transfer by agar well diffusion method; assay type: functional; settings: MLS-16 MTCC 2940, 24 h
Pseudomonas aeruginosa [5] = test: Bactericidal activity against Pseudomonas aeruginosa MTCC 2453 assessed as reduction in bacterial survival incubated for 24 hrs followed by transfer of microbial suspension to agar plates and measured at 24 hrs post transfer by agar well diffusion method; assay type: functional; settings: MTCC 2453, 24 h
Micrococcus luteus [6] = test: Antibiofilm activity against Micrococcus luteus MTCC 2470 assessed as inhibition of biofilm formation by crystal violet staining-based microtitre plate assay; assay type: functional, organism-based
Staphylococcus aureus [7] = test: Bactericidal activity against Staphylococcus aureus MTCC 96 assessed as reduction in bacterial survival incubated for 24 hrs followed by transfer of microbial suspension to agar plates and measured at 24 hrs post transfer by agar well diffusion method; assay type: functional; settings: MTCC 96, 24 h
Candida albicans [8] = test: Antifungal activity against Candida albicans MTCC 3017 assessed as reduction in fungal growth incubated for 24 hrs by agar well diffusion method; assay type: functional
Staphylococcus aureus [9] = test: Antibiofilm activity against Staphylococcus aureus MLS-16 MTCC 2940 assessed as inhibition of biofilm formation by crystal violet staining-based microtitre plate assay; assay type: functional, organism-based
Escherichia coli [10] = test: Bactericidal activity against Escherichia coli MTCC 739 assessed as reduction in bacterial survival incubated for 24 hrs followed by transfer of microbial suspension to agar plates and measured at 24 hrs post transfer by agar well diffusion method; assay type: functional; settings: MTCC 739, 24 h
Staphylococcus aureus [11] = test: Antibacterial activity against Staphylococcus aureus MLS-16 MTCC 2940 assessed as reduction in bacterial growth incubated for 24 hrs by agar well diffusion method; assay type: functional; settings: MLS-16 MTCC 2940, 24 h
Micrococcus luteus [12] = test: Bactericidal activity against Micrococcus luteus MTCC 2470 assessed as reduction in bacterial survival incubated for 24 hrs followed by transfer of microbial suspension to agar plates and measured at 24 hrs post transfer by agar well diffusion method; assay type: functional; settings: MTCC 2470, 24 h
Pseudomonas aeruginosa [13] = test: Antibacterial activity against Pseudomonas aeruginosa MTCC 2453 assessed as reduction in bacterial growth incubated for 24 hrs by agar well diffusion method; assay type: functional; settings: MTCC 2453, 24 h
Raoultella planticola [14] = test: Antibiofilm activity against Klebsiella planticola MTCC 530 assessed as inhibition of biofilm formation by crystal violet staining-based microtitre plate assay; assay type: functional, organism-based
Bacillus subtilis [15] = test: Antibiofilm activity against Bacillus subtilis MTCC 121 assessed as inhibition of biofilm formation by crystal violet staining-based microtitre plate assay; assay type: functional, organism-based
Escherichia coli [16] = test: Antibacterial activity against Escherichia coli MTCC 739 assessed as reduction in bacterial growth incubated for 24 hrs by agar well diffusion method; assay type: functional; settings: MTCC 739, 24 h
Raoultella planticola [17] = test: Bactericidal activity against Klebsiella planticola MTCC 530 assessed as reduction in bacterial survival incubated for 24 hrs followed by transfer of microbial suspension to agar plates and measured at 24 hrs post transfer by agar well diffusion method; assay type: functional; settings: MTCC 530, 24 h
Pseudomonas aeruginosa [18] = test: Antibiofilm activity against Pseudomonas aeruginosa MTCC 2453 assessed as inhibition of biofilm formation by crystal violet staining-based microtitre plate assay; assay type: functional, organism-based
Staphylococcus aureus [19] = test: Antibacterial activity against Staphylococcus aureus MTCC 96 assessed as reduction in bacterial growth incubated for 24 hrs by agar well diffusion method; assay type: functional; settings: MTCC 96, 24 h
Candida albicans [20] = test: Fungicidal activity against Candida albicans MTCC 3017 assessed as reduction in fungal survival incubated for 24 hrs followed by transfer of microbial suspension to agar plates and measured at 24 hrs post transfer by agar well diffusion method; assay type: functional
Raoultella planticola [21] = test: Antibacterial activity against Klebsiella planticola MTCC 530 assessed as reduction in bacterial growth incubated for 24 hrs by agar well diffusion method; assay type: functional; settings: MTCC 530, 24 h
Staphylococcus aureus [22] = test: Antibiofilm activity against Staphylococcus aureus MTCC 96 assessed as inhibition of biofilm formation by crystal violet staining-based microtitre plate assay; assay type: functional, organism-based
Micrococcus luteus [23] = test: Antibacterial activity against Micrococcus luteus MTCC 2470 assessed as reduction in bacterial growth incubated for 24 hrs by agar well diffusion method; assay type: functional; settings: MTCC 2470, 24 h
MRC5 = test: Cytotoxicity against human MRC5 cells assessed as reduction in cell viability incubated for 48 hrs by MTT assay; assay type: cell-based; settings: MRC5, 48 h
Escherichia coli [24] = test: Antibiofilm activity against Escherichia coli MTCC 739 assessed as inhibition of biofilm formation by crystal violet staining-based microtitre plate assay; assay type: functional, organism-based

Row | MIC (Bacillus subtilis [3]) | IC50 (Micrococcus luteus [6]) | IC50 (Staphylococcus aureus [9]) | MIC (Staphylococcus aureus [11]) | MIC (Pseudomonas aeruginosa [13]) | IC50 (Bacillus subtilis [15]) | MIC (Escherichia coli [16]) | IC50 (Pseudomonas aeruginosa [18]) | MIC (Staphylococcus aureus [19]) | IC50 (Staphylococcus aureus [22]) | MIC (Micrococcus luteus [23]) | Structure (SMILES) | MBC (Bacillus subtilis [2]) | MBC (Staphylococcus aureus [4]) | MBC (Pseudomonas aeruginosa [5]) | MBC (Staphylococcus aureus [7]) | MBC (Escherichia coli [10]) | MBC (Micrococcus luteus [12]) | IC50 (Raoultella planticola [14]) | MBC (Raoultella planticola [17]) | MIC (Raoultella planticola [21]) | also measured
1 | 3.9 µg/mL (≈ 8.66 µM) | 13.9 µg/mL (≈ 30.9 µM) | 14.4 µg/mL (≈ 32 µM) | 3.9 µg/mL (≈ 8.66 µM) | 3.9 µg/mL (≈ 8.66 µM) | 16 µg/mL (≈ 35.5 µM) | 3.9 µg/mL (≈ 8.66 µM) | 20.2 µg/mL (≈ 44.9 µM) | 3.9 µg/mL (≈ 8.66 µM) | 21.8 µg/mL (≈ 48.4 µM) | 7.8 µg/mL (≈ 17.3 µM) | O=C(c1cn(-c2ccc(Br)cc2)nn1)c1c(-c2ccccc2)nc2sccn12 | 7.8 µg/mL (≈ 17.3 µM) | 7.8 µg/mL (≈ 17.3 µM) | 7.8 µg/mL (≈ 17.3 µM) | 7.8 µg/mL (≈ 17.3 µM) | 7.8 µg/mL (≈ 17.3 µM) | 15.6 µg/mL (≈ 34.6 µM) | 21.1 µg/mL (≈ 46.9 µM) | 7.8 µg/mL (≈ 17.3 µM) | 3.9 µg/mL (≈ 8.66 µM) | MIC (Candida albicans [8]; MTCC 3017, 24 h): 7.8 µg/mL (≈ 17.3 µM); MFC (Candida albicans [20]; MTCC 3017, 24 h): 15.6 µg/mL (≈ 34.6 µM); IC50 (Escherichia coli [24]): 20.2 µg/mL (≈ 44.9 µM); IC50 (MRC5): 28.1 µg/mL (≈ 62.4 µM)
2 | 3.9 µg/mL (≈ 8.05 µM) | 16 µg/mL (≈ 33 µM) | 14 µg/mL (≈ 28.9 µM) | 7.8 µg/mL (≈ 16.1 µM) | 3.9 µg/mL (≈ 8.05 µM) | 13.5 µg/mL (≈ 27.8 µM) | 3.9 µg/mL (≈ 8.05 µM) | 17.5 µg/mL (≈ 36.1 µM) | 3.9 µg/mL (≈ 8.05 µM) | 21.3 µg/mL (≈ 43.9 µM) | 3.9 µg/mL (≈ 8.05 µM) | O=C(c1cn(-c2ccc(Br)cc2)nn1)c1c(-c2ccc(Cl)cc2)nc2sccn12 | 7.8 µg/mL (≈ 16.1 µM) | 15.6 µg/mL (≈ 32.2 µM) | 7.8 µg/mL (≈ 16.1 µM) | 7.8 µg/mL (≈ 16.1 µM) | 7.8 µg/mL (≈ 16.1 µM) | 7.8 µg/mL (≈ 16.1 µM) | 20.5 µg/mL (≈ 42.3 µM) | 15.6 µg/mL (≈ 32.2 µM) | 3.9 µg/mL (≈ 8.05 µM) | MIC (Candida albicans [8]; MTCC 3017, 24 h): 7.8 µg/mL (≈ 16.1 µM); MFC (Candida albicans [20]; MTCC 3017, 24 h): 15.6 µg/mL (≈ 32.2 µM); IC50 (Escherichia coli [24]): 16.2 µg/mL (≈ 33.4 µM); IC50 (MRC5): 37.3 µg/mL (≈ 76.9 µM)
3 | 3.9 µg/mL (≈ 8.86 µM) | 13.7 µg/mL (≈ 31.1 µM) | 11.9 µg/mL (≈ 27 µM) | 7.8 µg/mL (≈ 17.7 µM) | 3.9 µg/mL (≈ 8.86 µM) | 13.2 µg/mL (≈ 30 µM) | 3.9 µg/mL (≈ 8.86 µM) | 19.3 µg/mL (≈ 43.8 µM) | 3.9 µg/mL (≈ 8.86 µM) | 18.4 µg/mL (≈ 41.8 µM) | 3.9 µg/mL (≈ 8.86 µM) | O=C(c1cn(-c2ccc(Cl)cc2)nn1)c1c(-c2ccc(Cl)cc2)nc2sccn12 | 7.8 µg/mL (≈ 17.7 µM) | 15.6 µg/mL (≈ 35.4 µM) | 7.8 µg/mL (≈ 17.7 µM) | 7.8 µg/mL (≈ 17.7 µM) | 7.8 µg/mL (≈ 17.7 µM) | 7.8 µg/mL (≈ 17.7 µM) | 16.8 µg/mL (≈ 38.2 µM) | 7.8 µg/mL (≈ 17.7 µM) | 3.9 µg/mL (≈ 8.86 µM) | MIC (Candida albicans [8]; MTCC 3017, 24 h): 7.8 µg/mL (≈ 17.7 µM); MFC (Candida albicans [20]; MTCC 3017, 24 h): 15.6 µg/mL (≈ 35.4 µM); IC50 (Escherichia coli [24]): 14 µg/mL (≈ 31.8 µM); IC50 (MRC5): 24.2 µg/mL (≈ 55 µM)

Row | Structure (SMILES) | MIC (Bacillus subtilis [3]) | IC50 (Micrococcus luteus [6]) | IC50 (Staphylococcus aureus [9]) | MIC (Staphylococcus aureus [11]) | MIC (Pseudomonas aeruginosa [13]) | IC50 (Bacillus subtilis [15]) | MIC (Escherichia coli [16]) | IC50 (Pseudomonas aeruginosa [18]) | MIC (Staphylococcus aureus [19]) | IC50 (Staphylococcus aureus [22]) | MIC (Micrococcus luteus [23]) | MBC (Bacillus subtilis [2]) | MBC (Staphylococcus aureus [4]) | MBC (Pseudomonas aeruginosa [5]) | MBC (Staphylococcus aureus [7]) | MBC (Escherichia coli [10]) | MBC (Micrococcus luteus [12]) | IC50 (Raoultella planticola [14]) | MBC (Raoultella planticola [17]) | MIC (Raoultella planticola [21]) | also measured
4 | O=C(O)c1cn(C2CC2)c2cc(N3CCNCC3)c(F)cc2c1=O [CIPROFLOXACIN] | 0.9 µg/mL (≈ 2.72 µM) | 6.8 µg/mL (≈ 20.5 µM) | 6.6 µg/mL (≈ 19.9 µM) | 0.9 µg/mL (≈ 2.72 µM) | 0.9 µg/mL (≈ 2.72 µM) | 6.6 µg/mL (≈ 19.9 µM) | 0.9 µg/mL (≈ 2.72 µM) | 7.4 µg/mL (≈ 22.3 µM) | 0.9 µg/mL (≈ 2.72 µM) | 6.7 µg/mL (≈ 20.2 µM) | 0.9 µg/mL (≈ 2.72 µM) | 1.9 µg/mL (≈ 5.73 µM) | 1.9 µg/mL (≈ 5.73 µM) | 1.9 µg/mL (≈ 5.73 µM) | 1.9 µg/mL (≈ 5.73 µM) | 1.9 µg/mL (≈ 5.73 µM) | 1.9 µg/mL (≈ 5.73 µM) | 8.6 µg/mL (≈ 26 µM) | 1.9 µg/mL (≈ 5.73 µM) | 0.9 µg/mL (≈ 2.72 µM) | IC50 (Staphylococcus aureus [1]): 11.6 µg/mL; MIC (Candida albicans [8]): inactive; MFC (Candida albicans [20]): inactive; IC50 (MRC5): 53.4 µg/mL (≈ 161 µM)
